Measured values from patent publication US5258286A, “Method of terminating isocitrate dehydrogenase reaction” (Oriental Yeast Co., Ltd., priority 1985, dated 1993).

System: iCDH (isocitrate dehydrogenase)
Settings: EDTA concentration of 5 mM; 0.4 mM MgCl2, 1.6 mM isocitric acid, 1 mM NADP+, 0.1M triethanolamine hydrochloride pH 8.5, 25° C.; FIG. 1
Procedure: A varied amount of EDTA was added to 3 ml of a 0.1M triethanolamine hydrochloride solution (pH 8.5) containing the above-listed ingredients to provide an EDTA concentration of 0 to 10 mM. Each of the resulting mixtures was kept at a temperature of 25° C., and admixed with 20 μl of iCDH of about 3 u/ml, followed by measurement of the iCDH activity based on an increase in absorption at 340 nm by spectrophotometry.

O=C(O)CN(CCN(CC(=O)O)CC(=O)O)CC(=O)O [EDTA]
iCDH activity: completely loses its activity
